What was measured:
RD = assay: Broad cell line profiling, RD; format: cell-based; conditions: Human Rhabdomyosarcoma, read-out: PA IC50
From the text: • A panel of human and mouse cancer cell types used to assess the breadth of PA activity, including multiple therapy resistant metastatic mesenchymal tumor cell lines and primary glioblastoma patient-derived metastatic stem/tumor initiating cell populations.

p53 = p53 protein level in Jurkat cells; format: cell-based, human
Method: FIG. 7. Portimine A targets NMD3 and prevents polysome formation. […] (A) Immunoblot showing reduced NMD3 levels in shNMD3 Jurkat and HeLa cells. […] Jurkat cells were treated with 12.5 nM of PA for 12 or 24 hours. Jurkat and HeLa cells were treated with 5 nM or 150 nM of PA for 24 hours. Data represents mean±SD of biologically replicated experiments (n=3). […] Cell lysates were fractionated by sucrose gradient (5-50%) and each fraction were analyzed by western blot. eIF6 levels increase in 60S subunit fraction and decrease in ribosome-free fractions after PA treatment. RPS6, a 40S and polysome subunits marker, is decreased in polysome fractions after PA treatment. Results are representative of three independent experiments. […] Relative protein levels in each fraction were normalized to the peak fraction of the indicated protein from the DMSO cells and plotted. Data represents mean±SD of biologically replicated experiments (n=3). Statistical analysis was performed using multiple unpaired Student t-test. * p≤0.05; ** p≤0.01; *** p≤0.005; **** p≤0.0001. Treatment condition: Jurkat (5 M per condition); Incubate cells (1 M/mL) with inhibitors for 6 hr, 12 hr and 24 hr, respectively.
• 1) Portimine A and its functional analogs show stereo-selective acute toxicity in cancer cells (FIG. 1). […] (B) Structure of portimine related analogs: phenyl-portimine A (Ph-PA, 36) and epi-portimine A (ePA, 38). […]

In the case of `C=CC1=C[C@@H]2[C@@H]3O[C@]4(CC[C@H](O4)C(C)C[C@@H](O)C3=O)CC(O)C3=NCC[C@@]32CC1` (some centres unmarked) [PA, portimine A], the IC50 (RD) is reported as 0.56 nM and the p53 level (p53) is reported as “downregulated”.
